Measurements published in patent publication US20240226225A1 (Protagonist Therapeutics, Inc., priority 2021, published 2024).
Starred links: 1 amine or outer side, 2 acyl side, 3 side chain; linkers in the order of their positions; H or OH if unused. Positions of bridges follow the written chain, without caps; N, C: chain ends. Non-standard residues stand in square brackets, D forms with d. Residues, ends and D or L forms follow the SMILES beside them. Groups on a side chain read outwards from the residue. *: point of attachment. Ala(1H-tetrazol-5-yl) = N[C@@H](Cc1nnn[nH]1)C(=O)O; Phe(3,4-Cl2) = N[C@@H](Cc1ccc(Cl)c(Cl)c1)C(=O)O; Phe(2,4-Cl2) = N[C@@H](Cc1ccc(Cl)cc1Cl)C(=O)O; Phe(3,5-F2) = N[C@@H](Cc1cc(F)cc(F)c1)C(=O)O; C18 diacid = O=C(O)CCCCCCCCCCCCCCCCC(=O)*; Dip = N[C@H](C(=O)O)C(c1ccccc1)c1ccccc1; γGlu = O=C(O)[C@H](CCC(=O)[*:2])N[*:1]; β3hF = N[C@H](CC(=O)O)Cc1ccccc1; Isovaleryl = CC(C)CC(=O)*; AEEA = NCCOCCOCC(=O)O; X4 = O=C(CCC(F)(F)F)*

target: T1, ferroportin (Homo sapiens, UniProt Q9NP59); test: FPN activity assay: internalization/degradation of ferroportin-GFP in stably transfected HEK293 cells, decrease in GFP fluorescence; format: cell-based; set-up: expressed in transfected cells; conditions: HEK293 cells stably expressing ferroportin-GFP, at least 18 hours incubation; read-out: FPN EC50
T1 sequence (Q9NP59 1-571): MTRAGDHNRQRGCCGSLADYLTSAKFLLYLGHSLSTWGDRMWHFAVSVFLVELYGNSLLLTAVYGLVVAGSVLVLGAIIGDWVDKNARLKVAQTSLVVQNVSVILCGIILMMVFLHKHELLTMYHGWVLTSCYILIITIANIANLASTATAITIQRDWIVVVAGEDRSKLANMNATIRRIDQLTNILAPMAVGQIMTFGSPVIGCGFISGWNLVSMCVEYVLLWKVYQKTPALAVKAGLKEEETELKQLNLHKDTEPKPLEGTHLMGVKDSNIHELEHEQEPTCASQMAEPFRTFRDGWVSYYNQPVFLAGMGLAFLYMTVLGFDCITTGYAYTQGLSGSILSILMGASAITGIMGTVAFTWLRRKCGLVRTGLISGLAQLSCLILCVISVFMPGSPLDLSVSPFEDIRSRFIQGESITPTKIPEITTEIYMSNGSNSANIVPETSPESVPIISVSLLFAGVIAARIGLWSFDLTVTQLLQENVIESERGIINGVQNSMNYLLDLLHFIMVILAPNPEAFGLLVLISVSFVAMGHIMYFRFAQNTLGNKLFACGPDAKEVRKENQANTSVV

SMILES	DC50 [nM]
CC[C@H](C)[C@@H]1NC(=O)[C@@H](NC(=O)[C@@H]2CCCN2C(=O)[C@H](Cc2ccc(Cl)c(Cl)c2)NC(=O)[C@H](Cc2c[nH]cn2)NC(=O)[C@@H](NC(=O)[C@H](Cc2nn[nH]n2)NC(=O)CC(C)C)[C@@H](C)O)CSSC[C@@H](C(N)=O)NC(=O)[C@@H](CCCCN)NC(=O)C[C@H](Cc2ccccc2)NC(=O)[C@H](CCCCNC(=O)COCCOCCNC(=O)COCCOCCNC(=O)CC[C@H](NC(=O)CCCCCCCCCCCCCCCCC(=O)O)C(=O)O)NC1=O [Compd 25, Isovaleric Acid-[Tet1]-T-H-[Phe_34diCl]-P-[Cys]-I-[Lys(1PEG2_1PEG2_IsoGlu_C18_Diacid)]-[bhPhe]-[(D)Lys]-[Cys]-NH2] (Isovaleryl-[Ala(1H-tetrazol-5-yl)]TH[Phe(3,4-Cl2)]PCIK([AEEA-AEEA-γGlu-C18 diacid])[β3hF][dK]C-NH2; disulfide 6-11)	100 to 500
CC[C@H](C)[C@@H]1NC(=O)[C@@H](NC(=O)[C@@H]2CCCN2C(=O)[C@@H](NC(=O)[C@H](Cc2c[nH]cn2)NC(=O)[C@@H](NC(=O)[C@H](Cc2nn[nH]n2)NC(=O)CCCCN)[C@@H](C)O)C(c2ccccc2)c2ccccc2)CSSC[C@@H](C(N)=O)NC(=O)[C@@H](CCCCN)NC(=O)C[C@H](Cc2ccccc2)NC(=O)[C@H](CCCCNC(=O)COCCOCCNC(=O)COCCOCCNC(=O)CC[C@H](NC(=O)CCCCCCCCCCCCCCCCC(=O)O)C(=O)O)NC1=O [Compd 39, 5 AminoPentanoicAcid-[Tet1]-T-H-[Dpa]-P-[Cys]-I-[Lys(1PEG2_1PEG2_IsoGlu_C18_Diacid)]-[bhPhe]-[(D)Lys]-[Cys]-NH2]	> 500
CC[C@H](C)[C@@H]1NC(=O)[C@@H](NC(=O)[C@@H]2CCCN2C(=O)[C@@H](NC(=O)[C@H](Cc2c[nH]cn2)NC(=O)[C@@H](NC(=O)[C@H](Cc2nn[nH]n2)NC(=O)CCC(F)(F)F)[C@@H](C)O)C(c2ccccc2)c2ccccc2)CSSC[C@@H](C(N)=O)NC(=O)[C@@H](CCCCN)NC(=O)C[C@H](Cc2ccccc2)NC(=O)[C@H](CCCCNC(=O)COCCOCCNC(=O)COCCOCCNC(=O)CC[C@H](NC(=O)CCCCCCCCCCCCCCCCC(=O)O)C(=O)O)NC1=O [Compd 47, TriF_Butyric_Acid-[Tet1]-T-H-[Dpa]-P-[Cys]-I-[Lys(1PEG2_1PEG2_IsoGlu_C18_Diacid)]-[bhPhe]-[(D)Lys]-[Cys]-NH2] (X4-[Ala(1H-tetrazol-5-yl)]TH[Dip]PCIK([AEEA-AEEA-γGlu-C18 diacid])[β3hF][dK]C-NH2; disulfide 6-11)	10 to 100
CC[C@H](C)[C@@H]1NC(=O)[C@@H](NC(=O)[C@@H]2CCCN2C(=O)[C@@H](NC(=O)[C@H](Cc2cnc[nH]2)NC(=O)[C@@H](NC(=O)[C@H](CC2N=NN=N2)NC(=O)c2ccccc2)[C@@H](C)O)C(c2ccccc2)c2ccccc2)CSSC[C@@H](C(N)=O)NC(=O)[C@@H](CCCCN)NC(=O)C[C@H](Cc2ccccc2)NC(=O)[C@H](CCCCNC(=O)COCCOCCNC(=O)COCCOCCNC(=O)CC[C@H](NC(=O)CCCCCCCCCCCCCCCCC(=O)O)C(=O)O)NC1=O [Compd 42, Benzyl-[Tet1]-T-H-[Dpa]-P-[Cys]-I-[Lys(1PEG2_1PEG2_IsoGlu_C18_Diacid)]-[bhPhe]-[(D)Lys]-[Cys]-NH2]	10 to 100
CC[C@H](C)[C@@H]1NC(=O)[C@@H](NC(=O)[C@@H]2CCCN2C(=O)[C@H](Cc2ccccc2)NC(=O)[C@H](Cc2c[nH]cn2)NC(=O)[C@@H](NC(=O)[C@H](Cc2nn[nH]n2)NC(=O)CC(C)C)[C@@H](C)O)CSSC[C@@H](C(=O)N[C@@H](CCCCN)C(N)=O)NC(=O)CNC(=O)[C@H](CCCCN)NC(=O)[C@H](CO)NC(=O)[C@H](CCCNC(=N)N)NC(=O)[C@@H]2CCCN2C(=O)[C@H](CCC(=O)O)NC(=O)[C@H](Cc2ccccc2)NC(=O)[C@H](CCCCNC(=O)COCCOCCNC(=O)COCCOCCNC(=O)CC[C@H](NC(=O)CCCCCCCCCCCCCCCCC(=O)O)C(=O)O)NC1=O [Compd 3, Isovaleric Acid-[Tet1]-T-H-F-P-[Cys]-I-[Lys(1PEG2_1PEG2_IsoGlu_C18_Diacid)]-F-E-P-R-S-K-G-[Cys]-K-NH2] (Isovaleryl-[Ala(1H-tetrazol-5-yl)]THFPCIK([AEEA-AEEA-γGlu-C18 diacid])FEPRSKGCK-NH2; disulfide 6-16)	10 to 100
CC[C@H](C)[C@@H]1NC(=O)[C@@H](NC(=O)[C@@H]2CCCN2C(=O)[C@@H](NC(=O)[C@H](Cc2c[nH]cn2)NC(=O)[C@@H](NC(=O)[C@H](Cc2nn[nH]n2)NC(=O)CCCN)[C@@H](C)O)C(c2ccccc2)c2ccccc2)CSSC[C@@H](C(N)=O)NC(=O)[C@@H](CCCCN)NC(=O)C[C@H](Cc2ccccc2)NC(=O)[C@H](CCCCNC(=O)COCCOCCNC(=O)COCCOCCNC(=O)CC[C@H](NC(=O)CCCCCCCCCCCCCCCCC(=O)O)C(=O)O)NC1=O [Compd 38, Gaba-[Tet1]-T-H-[Dpa]-P-[Cys]-I-[Lys(1PEG2_1PEG2_IsoGlu_C18_Diacid)]-[bhPhe]-[(D)Lys]-[Cys]-NH2]	> 500
CC[C@H](C)[C@@H]1NC(=O)[C@@H](NC(=O)[C@@H]2CCCN2C(=O)[C@H](Cc2cc(F)cc(F)c2)NC(=O)[C@H](Cc2c[nH]cn2)NC(=O)[C@@H](NC(=O)[C@H](Cc2nn[nH]n2)NC(=O)CC(C)C)[C@@H](C)O)CSSC[C@@H](C(N)=O)NC(=O)[C@@H](CCCCN)NC(=O)C[C@H](Cc2ccccc2)NC(=O)[C@H](CCCCNC(=O)COCCOCCNC(=O)COCCOCCNC(=O)CC[C@H](NC(=O)CCCCCCCCCCCCCCCCC(=O)O)C(=O)O)NC1=O [Compd 19, Isovaleric Acid-[Tet1]-T-H-[Phe_35diF]-P-[Cys]-I-[Lys(1PEG2_1PEG2_IsoGlu_C18_Diacid)]-[bhPhe]-[(D)Lys]-[Cys]-NH2] (Isovaleryl-[Ala(1H-tetrazol-5-yl)]TH[Phe(3,5-F2)]PCIK([AEEA-AEEA-γGlu-C18 diacid])[β3hF][dK]C-NH2; disulfide 6-11)	100 to 500
CCCCCCCCCCCCCCCC(=O)NCCOCCOCCOCCOCCOCCOCCOCCOCCOCCOCCOCCOCCC(=O)NCCCC[C@@H]1NC(=O)[C@H](Cc2ccccc2)NC(=O)[C@H](CCCCN)NC(=O)[C@H]([C@@H](C)CC)NC(=O)[C@@H](NC(=O)[C@@H]2CCCN2C(=O)[C@H](Cc2ccccc2)NC(=O)[C@H](Cc2c[nH]cn2)NC(=O)[C@@H](NC(=O)[C@H](CC(=O)O)NC(=O)CC(C)C)[C@@H](C)O)CSSC[C@@H](C(=O)N[C@@H](CCCCN)C(N)=O)NC(=O)CNC(=O)[C@H](CCCCN)NC(=O)[C@H](CO)NC(=O)[C@H](CCCNC(=N)N)NC(=O)[C@@H]2CCCN2C1=O [compound 1, reference compound]	10 to 100
CC[C@H](C)[C@@H]1NC(=O)[C@@H](NC(=O)[C@@H]2CCCN2C(=O)[C@@H](NC(=O)[C@H](Cc2c[nH]cn2)NC(=O)[C@@H](NC(=O)[C@H](Cc2nn[nH]n2)NC(=O)CC(C)C)[C@@H](C)O)C(c2ccccc2)c2ccccc2)CSSC[C@@H](C(=O)O)NC(=O)C[C@H](Cc2ccccc2)NC(=O)[C@H](CCCCNC(=O)COCCOCCNC(=O)COCCOCCNC(=O)CC[C@H](NC(=O)CCCCCCCCCCCCCCCCC(=O)O)C(=O)O)NC1=O [Compd 37, Isovaleric Acid-[Tet1]-T-H-[Dpa]-P-[Cys]-I-[Lys(1PEG2_1PEG2_IsoGlu_C18_Diacid)]-[bhPhe]-[Cys]] (Isovaleryl-[Ala(1H-tetrazol-5-yl)]TH[Dip]PCIK([AEEA-AEEA-γGlu-C18 diacid])[β3hF]C-OH; disulfide 6-10; C-terminus assumed)	> 500
CC[C@H](C)[C@@H]1NC(=O)[C@@H](NC(=O)[C@@H]2CCCN2C(=O)[C@H](Cc2ccc(Cl)cc2Cl)NC(=O)[C@H](Cc2c[nH]cn2)NC(=O)[C@@H](NC(=O)[C@H](Cc2nn[nH]n2)NC(=O)CC(C)C)[C@@H](C)O)CSSC[C@@H](C(N)=O)NC(=O)[C@@H](CCCCN)NC(=O)C[C@H](Cc2ccccc2)NC(=O)[C@H](CCCCNC(=O)COCCOCCNC(=O)COCCOCCNC(=O)CC[C@H](NC(=O)CCCCCCCCCCCCCCCCC(=O)O)C(=O)O)NC1=O [Compd 26, Isovaleric Acid-[Tet1]-T-H-[Phe_24diCl]-P-[Cys]-I-[Lys(1PEG2_1PEG2_IsoGlu_C18_Diacid)]-[bhPhe]-[(D)Lys]-[Cys]-NH2] (Isovaleryl-[Ala(1H-tetrazol-5-yl)]TH[Phe(2,4-Cl2)]PCIK([AEEA-AEEA-γGlu-C18 diacid])[β3hF][dK]C-NH2; disulfide 6-11)	100 to 500

target: T1, ferroportin; test: T47D cell-based ferroportin internalization assay in presence of 0.5% mouse serum albumin (MSA), AF647-conjugated detection peptide, flow cytometry; set-up: a human breast carcinoma adherent cell line which endogenously expresses ferroportin; host or cells: T47D; conditions: T47D cells, 1 hr incubation
Experimental: The potency of the peptides in causing ferroportin internalization was evaluated in a T47D cell-based assay. […] In this internalization assay, the potency of the test peptides was evaluated in presence of serum albumin which is the main protein component in the blood. T47D cells were maintained in RPMI media (containing required amount of fetal bovine serum) and regularly sub-cultured. In preparation for the assay, the cells were seeded in 96-well plates at a density of 80-100 k cells per well in 100 ul volume and allowed to rest overnight. On the next day, test peptides were first prepared in dilution series (10-point series, starting concentration of ˜5 μM, typically 3-4×fold dilution steps), all with 0.5% mouse serum albumin (MSA purified from mouse serum; Sigma, A3139). The test peptide dilution series were allowed to incubate at room temperature for 30 min. Then the media was aspirated from the 96-well cell plate and test peptide dilution series were added. After 1 hr incubation, the media with test peptides was aspirated out and AF647-conjugated detection peptide was added at fixed concentration of 200 nM. The AF647-conjugated detection peptide was previously verified to bind to ferroportin and cause its internalization. The cells were washed again after a 2 hr incubation in preparation for flow cytometry analysis. The Median Fluorescence Intensity (MFI) of the AF647-positive population was measured (after removing dead cells and non-singlets from the analysis). The MFI values were used to generate a dose-response curve and obtain IC50 potencies for the test peptides. The IC50 potencies were calculated by using 4-parameter non-linear fitting function in Graphpad Prism (Table 2A).

SMILES	IC50 [nM]
CC[C@H](C)[C@@H]1NC(=O)[C@@H](NC(=O)[C@@H]2CCCN2C(=O)[C@@H](NC(=O)[C@H](Cc2c[nH]cn2)NC(=O)[C@@H](NC(=O)[C@H](Cc2nn[nH]n2)NC(=O)CCC(F)(F)F)[C@@H](C)O)C(c2ccccc2)c2ccccc2)CSSC[C@@H](C(N)=O)NC(=O)[C@@H](CCCCN)NC(=O)C[C@H](Cc2ccccc2)NC(=O)[C@H](CCCCNC(=O)COCCOCCNC(=O)COCCOCCNC(=O)CC[C@H](NC(=O)CCCCCCCCCCCCCCCCC(=O)O)C(=O)O)NC1=O [Compd 47, TriF_Butyric_Acid-[Tet1]-T-H-[Dpa]-P-[Cys]-I-[Lys(1PEG2_1PEG2_IsoGlu_C18_Diacid)]-[bhPhe]-[(D)Lys]-[Cys]-NH2] (X4-[Ala(1H-tetrazol-5-yl)]TH[Dip]PCIK([AEEA-AEEA-γGlu-C18 diacid])[β3hF][dK]C-NH2; disulfide 6-11)	100 to 500
